pIC50: −log10 of the molar value.
target: T1, Acyl-CoA: Cholesterol Acyltransferase (ACAT) (Rattus norvegicus, UniProt Q7TQM4); assay: Inhibition of Acyl-CoA: Cholesterol Acyltransferase (ACAT) in Hepatic Microsomes (In Vitro Assay); format: biochemical, rat (male Sprague Dawley); details: 75 μM 14C-oleoyl-CoA, pH 7.4, 37° C., 10 min, read-out: ACAT Inhibitory Activity (In Vitro) (IC50)
T1 construct: centrifuged at 105,000×g for 1 hour to pellet the microsomes; from tissue; host or cells: liver microsomes of male Sprague Dawley rats
T1 sequence (Q7TQM4 1-524): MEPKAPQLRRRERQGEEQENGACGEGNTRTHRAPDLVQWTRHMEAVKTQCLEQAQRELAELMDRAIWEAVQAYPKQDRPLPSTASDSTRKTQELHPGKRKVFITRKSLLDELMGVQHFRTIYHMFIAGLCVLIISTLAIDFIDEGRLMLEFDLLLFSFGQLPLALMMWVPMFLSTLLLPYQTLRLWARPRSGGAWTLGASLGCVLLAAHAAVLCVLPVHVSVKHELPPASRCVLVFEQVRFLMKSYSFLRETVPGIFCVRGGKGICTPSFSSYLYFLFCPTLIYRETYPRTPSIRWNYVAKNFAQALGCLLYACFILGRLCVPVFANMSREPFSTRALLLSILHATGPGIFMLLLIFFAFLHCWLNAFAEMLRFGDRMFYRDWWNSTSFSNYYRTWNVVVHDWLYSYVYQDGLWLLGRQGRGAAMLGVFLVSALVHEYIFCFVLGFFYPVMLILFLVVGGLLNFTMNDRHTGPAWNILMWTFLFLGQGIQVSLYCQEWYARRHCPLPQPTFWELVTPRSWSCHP
Procedure: A. Assay of the Inhibition of Acyl-CoA: Cholesterol Acyltransferase (ACAT) in Hepatic Microsomes (In Vitro Assay)
The ability of the compounds to inhibit ACAT, the enzyme responsible for the intracellular synthesis of cholesteryl esters, was tested as follows. Male Sprague Dawley rats weighing 150-300 g, were fed rat chow ad libitum. The animals were fasted for twenty-four hours prior to being euthanized by CO2. The livers were perfused in situ with 50 ml of cold 0.25 sucrose, excised, and homogenized in three volumes of 0.1M phosphate buffer, pH 7.4, that contained 0.5 mM EDTA (ethylenediamine-tetraacetic acid), 1.0 mM glutathione, 0.25M sucrose and […] leupeptin. Microsomes were obtained by differential centrifugation; the supernatant from an initial spin at 15,000×g for 15 minutes was centrifuged at 105,000×g for 1 hour to pellet the microsomes. The microsomes were suspended in homogenization buffer, reisolated by centrifugation, and stored at -70° C. Microsomes were used within one month of preparation.
The control assay in a final volume of 200 μl consisted of 200 μg of microsomal protein, 75 μM ^14 C-oleoyl-CoA (10,000 dpm/nmol) in 0.1M phosphate, pH 7.4, that contained 1 mM glutathione. Compounds were added in 5 μl of DMSO (dimethyl sulfoxide) and additional controls were run with DMSO only. All components, except the oleoyl-CoA, were preincubated for 15 min. at 37° C. prior to the initiation of the reaction by the addition of oleoyl-CoA. The assay was terminated after 10 min by the addition of 4 ml of chloroform:methanol (2:1, v/v). 20,000 dpm of ^3 H-cholesteryl oleate and 10 μg of unlabeled cholesteryl oleate and oleic acid were added as an internal standard and carriers, respectively. After allowing 10 min. for lipid extraction, the samples were centrifuged at 1,000×g for 10 min to separate the solvent layers. The chloroform layer containing the neutral lipids was spotted onto a Baker SI250-Pa silica gel TLC plate and the plate developed using a hexane:diethyl ether:acetic acid (170:30:1) v/v/v) mobile phase. The lipids were visualized by their interaction with iodine vapor and the cholesteryl ester spot was scraped into a scintillation vial and counted. The specific activity of ACAT in the control incubation averaged 260 pmol/min/mg microsomal protein. The data obtained are expressed as the concentration at which ACAT activity is inhibited by 50% (IC50).

pIC50, > 6.00:
CSc1cc(C)nc(SC)c1NC(=O)C(Sc1ccc(F)cc1)c1ccc(C(F)(F)F)cc1 (stereo not drawn) [Example 393, N-[2,4-bis(methylthio)-6-methyl-3-pyridyl]-α-(4-fluoro-phenylthio)-4-trifluoromethyl-phenylacetamide]
COc1ccc(SC(C(=O)Nc2c(SC)cc(C)nc2SC)c2ccc(C(F)(F)F)cc2)cc1 (stereo not drawn) [Example 394, N-[2,4-bis(methylthio)-6-methyl-3-pyridyl]-α-(4-methoxy-phenylthio)-4-trifluoromethyl-phenylacetamide]
CCCCCCSC(C(=O)Nc1c(SC)cc(C)nc1SC)c1ccc(C(C)C)cc1 (stereo not drawn) [Example 403, N-[2,4-bis(methylthio)-6-methyl-3-pyridyl]-α-hexylthio-4-isopropylphenylacetamide]
CSc1cc(C)nc(SC)c1NC(=O)C(SCc1ccc(Cl)cc1)c1ccc(C(C)C)cc1 (stereo not drawn) [Example 410, N-[2,4-bis(methylthio)-6-methyl-3-pyridyl]-α-(4-chloro-benzylthio)-4-isopropylphenylacetamide]
CCCCOc1ccc(CSC(C(=O)Nc2c(SC)cc(C)nc2SC)c2ccc(C(C)C)cc2)cc1 (stereo not drawn) [Example 411, N-[2,4-bis(methylthio)-6-methyl-3-pyridyl]-α-(4-butoxy-benzylthio)-4-isopropylphenylacetamide]
CCCCCCSC(C(=O)Nc1c(SC)cc(C)nc1SC)c1ccc(C(C)(C)C)cc1 (stereo not drawn) [Example 431, N-[2,4-bis(methylthio)-6-methyl-3-pyridyl]-α-hexylthio-4-tert-butylphenylacetamide]
CSc1cc(C)nc(SC)c1NC(=O)C(SCc1ccccc1)c1ccc(C(C)(C)C)cc1 (stereo not drawn) [Example 435, N-[2,4-bis(methylthio)-6-methyl-3-pyridyl]-α-benzylthio-4-tert-butylphenylacetamide]
CSc1cc(C)nc(SC)c1NC(=O)C(SCc1ccc(Cl)cc1)c1ccc(C(C)(C)C)cc1 (stereo not drawn) [Example 437, N-[2,4-bis(methylthio)-6-methyl-3-pyridyl]-α-(4-chloro-benzylthio)-4-tert-butylphenylacetamide]
CSc1cc(C)nc(SC)c1NC(=O)C(SCc1ccc(C(C)(C)C)cc1)c1ccc(C(C)(C)C)cc1 (stereo not drawn) [Example 439, N-[2,4-bis(methylthio)-6-methyl-3-pyridyl]-α-(4-tert-butyl-benzylthio)-4-tert-butylphenylacetamide]
CSc1cc(C)nc(SC)c1NC(=O)C(SCc1ccccc1)c1ccc(-c2ccccc2)cc1 (stereo not drawn) [Example 463, N-[2,4-bis(methylthio)-6-methyl-3-pyridyl]-α-benzylthio-4-biphenylacetamide]
CSc1cc(C)nc(SC)c1NC(=O)C(SCc1ccc(F)cc1)c1ccc(-c2ccccc2)cc1 (stereo not drawn) [Example 464, N-[2,4-bis(methylthio)-6-methyl-3-pyridyl]-α-(4-fluoro-benzylthio)-4-biphenylacetamide]
COc1ccc(CSC(C(=O)Nc2c(SC)cc(C)nc2SC)c2ccc(-c3ccccc3)cc2)cc1 (stereo not drawn) [Example 465, N-[2,4-bis(methylthio)-6-methyl-3-pyridyl]-α-(4-methoxy-benzylthio)-4-biphenylacetamide]
CCCCOc1ccc(CSC(C(=O)Nc2c(SC)cc(C)nc2SC)c2ccc(-c3ccccc3)cc2)cc1 (stereo not drawn) [Example 467, N-[2,4-bis(methylthio)-6-methyl-3-pyridyl]-α-(4-butoxy-benzylthio)-4-biphenylacetamide]
CSc1cc(C)nc(SC)c1NC(=O)C(SCc1cccnc1)c1ccc(-c2ccccc2)cc1 (stereo not drawn) [Example 484, N-[2,4-bis(methylthio)-6-methyl-3-pyridyl]-α-(3-pyridyl-methylthio)-4-biphenylacetamide]
CCCCCCSC(C(=O)Nc1c(SC)cc(C)nc1SC)c1ccc([N+](=O)[O-])cc1 (stereo not drawn) [Example 487, N-[2,4-bis(methylthio)-6-methyl-3-pyridyl]-α-hexylthio-4-nitro-phenylacetamide]
CCCCCCSC(C(=O)Nc1c(SC)cc(C)nc1SC)c1ccc2c(c1)OCO2 (stereo not drawn) [Example 515, N-[2,4-bis(methylthio)-6-methyl-3-pyridyl]-α-hexylthio-3,4-methylenedioxyphenylacetamide]
